From ChEMBL document CHEMBL1158420, “Synthesis, spectral, crystal and antimicrobial studies of biologically potent oxime ethers of nitrogen, oxygen and sulfur heterocycles” (2009)
≈ marks a conversion by molar mass, not a printed value.

Key:
[1] = test system: Aspergillus niger; experiment: Antifungal activity against Aspergillus niger by twofold dilution method; assay type: functional
[2] = test system: Escherichia coli; experiment: Ratio of MIC for drug to MIC for Ciprofloxacin against Escherichia coli; assay type: functional
[3] = test system: Pseudomonas aeruginosa; experiment: Ratio of MIC for drug to MIC for Ciprofloxacin against Pseudomonas aeruginosa; assay type: functional
[4] = test system: Aspergillus flavus; experiment: Antifungal activity against Aspergillus flavus by twofold dilution method; assay type: functional
[5] = test system: Salmonella enterica subsp. enterica; experiment: Antibacterial activity against Salmonella typhi by twofold dilution method; assay type: functional, Salmonella enterica subsp. enterica serovar Typhi
[6] = test system: Candida; experiment: Antifungal activity against Candida 51 by twofold dilution method; assay type: functional
[7] = test system: Rhizopus; experiment: Antifungal activity against Rhizopus sp. by twofold dilution method; assay type: functional
[8] = test system: Staphylococcus aureus; experiment: Ratio of MIC for drug to MIC for Ciprofloxacin against Staphylococcus aureus; assay type: functional
[9] = test system: Cryptococcus neoformans; experiment: Antifungal activity against Cryptococcus neoformans by twofold dilution method; assay type: functional
[10] = test system: Escherichia coli; experiment: Antibacterial activity against Escherichia coli by twofold dilution method; assay type: functional
[11] = test system: Candida albicans; experiment: Antifungal activity against Candida albicans by twofold dilution method; assay type: functional
[12] = test system: Staphylococcus aureus; experiment: Antibacterial activity against Staphylococcus aureus by twofold dilution method; assay type: functional
[13] = test system: Pseudomonas aeruginosa; experiment: Antibacterial activity against Pseudomonas aeruginosa by twofold dilution method; assay type: functional
[14] = test system: Salmonella enterica subsp. enterica; experiment: Ratio of MIC for drug to MIC for Ciprofloxacin against Salmonella typhi; assay type: functional, Salmonella enterica subsp. enterica serovar Typhi
[15] = test system: Aspergillus niger; experiment: Ratio of MIC for drug to MIC for Amphotericin B against Aspergillus niger; assay type: functional
[16] = test system: Aspergillus flavus; experiment: Ratio of MIC for drug to MIC for Amphotericin B against Aspergillus flavus; assay type: functional
[17] = test system: Rhizopus; experiment: Ratio of MIC for drug to MIC for Amphotericin B against Rhizopus sp.; assay type: functional
[18] = test system: Cryptococcus neoformans; experiment: Ratio of MIC for drug to MIC for Amphotericin B against Cryptococcus neoformans; assay type: functional
[19] = test system: Candida albicans; experiment: Ratio of MIC for drug to MIC for Amphotericin B against Candida albicans; assay type: functional
[20] = Aspergillus niger, read-out: MIC
[21] = Aspergillus flavus, read-out: MIC
[22] = Salmonella enterica, read-out: MIC
[23] = Cryptococcus neoformans, read-out: MIC
[24] = Escherichia coli, read-out: MIC
[25] = Candida albicans, read-out: MIC
[26] = Staphylococcus aureus, read-out: MIC
[27] = Pseudomonas aeruginosa, read-out: MIC

Compound | MIC [1, 20] | MIC [4, 21] | MIC [5, 22] | MIC ([6]; Candida, 51, read-out: MIC) | MIC ([7]; Rhizopus, read-out: MIC) | Ratio [8] | MIC [9, 23] | MIC [10, 24] | MIC [11, 25] | MIC [12, 26] | MIC [13, 27] | Ratio [14] | MIC [13] | MIC [6] | MIC [11] | also measured
CC1C(=NOCc2ccccc2)C(C)C(c2ccc(Cl)cc2)NC1c1ccc(Cl)cc1 (stereo not given) | 25 µg/mL (≈ 55.1 µM) | 25 µg/mL (≈ 55.1 µM) | 25 µg/mL (≈ 55.1 µM) | 25 µg/mL (≈ 55.1 µM) | 50 µg/mL (≈ 110 µM) | 2 | 25 µg/mL (≈ 55.1 µM) | 12.5 µg/mL (≈ 27.6 µM) | 25 µg/mL (≈ 55.1 µM) | 6.25 µg/mL (≈ 13.8 µM) | 6.25 µg/mL (≈ 13.8 µM) | 2 | – | – | – | Ratio [2]: 2; Ratio [3]: 4
Cc1ccc([C@@H]2C/C(=N/OCc3ccccc3)C[C@H](c3ccc(C)cc3)S2)cc1 | 50 µg/mL (≈ 125 µM) | 100 µg/mL (≈ 249 µM) | 25 µg/mL (≈ 62.3 µM) | 100 µg/mL (≈ 249 µM) | 50 µg/mL (≈ 125 µM) | 2 | 200 µg/mL (≈ 498 µM) | 50 µg/mL (≈ 125 µM) | 100 µg/mL (≈ 249 µM) | 12.5 µg/mL (≈ 31.1 µM) | 25 µg/mL (≈ 62.3 µM) | 2 | – | – | – | –
Cc1ccc(C2NC(c3ccc(C)cc3)C(C)C(=NOCc3ccccc3)C2C)cc1 (stereo not given) | 50 µg/mL (≈ 121 µM) | 25 µg/mL (≈ 60.6 µM) | 50 µg/mL (≈ 121 µM) | 6.25 µg/mL (≈ 15.1 µM) | 12.5 µg/mL (≈ 30.3 µM) | – | 50 µg/mL (≈ 121 µM) | 12.5 µg/mL (≈ 30.3 µM) | 50 µg/mL (≈ 121 µM) | 6.25 µg/mL (≈ 15.1 µM) | 25 µg/mL (≈ 60.6 µM) | – | – | – | – | Ratio [15]: 2; Ratio [2]: 4; Ratio [3]: 4; Ratio [16]: 2; Ratio [17]: 2; Ratio [18]: 2; Ratio [19]: 2
CC1C(=NOCc2ccccc2)C(C)C(c2ccccc2)NC1c1ccccc1 (stereo in doubt; 5f1) | 100 µg/mL (≈ 260 µM) | 200 µg/mL (≈ 520 µM) | 100 µg/mL (≈ 260 µM) | 50 µg/mL (≈ 130 µM) | 100 µg/mL (≈ 260 µM) | – | 100 µg/mL (≈ 260 µM) | 50 µg/mL (≈ 130 µM) | 50 µg/mL (≈ 130 µM) | 200 µg/mL (≈ 520 µM) | – | – | 50 µg/mL (≈ 130 µM) | – | – | –
CC1C(=NOCc2ccccc2)C(C)C(c2ccccc2)NC1c1ccccc1 (stereo in doubt; 5f2) | – | – | – | – | – | – | – | – | – | – | – | – | 200 µg/mL (≈ 520 µM) | 100 µg/mL (≈ 260 µM) | 100 µg/mL (≈ 260 µM) | MIC [1]: 100 µg/mL (≈ 260 µM); MIC [4]: >200 µg/mL; MIC [5]: 100 µg/mL (≈ 260 µM); MIC [7]: 50 µg/mL (≈ 130 µM); MIC [9]: 200 µg/mL (≈ 520 µM); MIC [10]: 100 µg/mL (≈ 260 µM); MIC [12]: 100 µg/mL (≈ 260 µM)
CC1C(=NOCc2ccccc2)C(C)C(c2ccc(Cl)cc2)OC1c1ccc(Cl)cc1 (stereo in doubt; 7c1) | 100 µg/mL (≈ 220 µM) | 50 µg/mL (≈ 110 µM) | 50 µg/mL (≈ 110 µM) | 50 µg/mL (≈ 110 µM) | 50 µg/mL (≈ 110 µM) | – | 25 µg/mL (≈ 55 µM) | 50 µg/mL (≈ 110 µM) | – | 50 µg/mL (≈ 110 µM) | 25 µg/mL (≈ 55 µM) | – | – | – | 50 µg/mL (≈ 110 µM) | –
CC1C(=NOCc2ccccc2)C(C)C(c2ccc(Cl)cc2)OC1c1ccc(Cl)cc1 (stereo in doubt; 7c2) | – | – | – | – | – | – | – | – | – | – | – | – | 50 µg/mL (≈ 110 µM) | 25 µg/mL (≈ 55 µM) | 12.5 µg/mL (≈ 27.5 µM) | MIC [1]: 50 µg/mL (≈ 110 µM); MIC [4]: 25 µg/mL (≈ 55 µM); MIC [5]: 100 µg/mL (≈ 220 µM); MIC [7]: 25 µg/mL (≈ 55 µM); MIC [9]: 12.5 µg/mL (≈ 27.5 µM); MIC [10]: 50 µg/mL (≈ 110 µM); MIC [12]: 50 µg/mL (≈ 110 µM)
Cc1ccc(C2OC(c3ccc(C)cc3)C(C)C(=NOCc3ccccc3)C2C)cc1 (stereo in doubt; 7d1) | 50 µg/mL (≈ 121 µM) | 50 µg/mL (≈ 121 µM) | 25 µg/mL (≈ 60.5 µM) | – | 50 µg/mL (≈ 121 µM) | 2 | 50 µg/mL (≈ 121 µM) | 25 µg/mL (≈ 60.5 µM) | – | 12.5 µg/mL (≈ 30.2 µM) | 12.5 µg/mL (≈ 30.2 µM) | 2 | – | 50 µg/mL (≈ 121 µM) | 25 µg/mL (≈ 60.5 µM) | –
